Data: PubChem BioAssay (NCI)
Several values for one entry are separate records, joined by “and”; a condition that tells them apart may be missing. Identical values can stand only once.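 Values below derive from 48-hour exposures of cells grown in 96-well plates, with endpoints linearly interpolated between the two concentrations bracketing the appropriate inhibition level. GI50 is the concentration that inhibits growth by half. The concentration for full growth arrest is given as TGI.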

Tests used:
Assay in all cases: growth of human tumour cells (NCI), 48 h
OVCAR-4 ovarian = tested on: OVCAR-4 ovarian
NCI-H226 lung = tested on: NCI-H226 lung
LXFL 529 NSCLC = tested on: LXFL 529 NSCLC
HT29 colon = tested on: HT29 colon
HCT-116 colon = tested on: HCT-116 colon
M19-MEL melanoma = tested on: M19-MEL melanoma
MALME-3M melanoma = tested on: MALME-3M melanoma
HOP-62 NSCLC = tested on: HOP-62 NSCLC
EKVX NSCLC = tested on: EKVX NSCLC
SK-MEL-28 melanoma = tested on: SK-MEL-28 melanoma

SMILES	TGI (OVCAR-4 ovarian) [µM]	TGI (NCI-H226 lung)	TGI (LXFL 529 NSCLC) [µM]	TGI (HT29 colon)	TGI (HCT-116 colon)	TGI (M19-MEL melanoma) [µM]	TGI (MALME-3M melanoma) [µM]	TGI (HOP-62 NSCLC)	TGI (EKVX NSCLC) [µM]	TGI (SK-MEL-28 melanoma) [µM]	GI50 (HCT-116 colon) [µM]	GI50 (EKVX NSCLC) [µM]	GI50 (OVCAR-4 ovarian) [µM]	GI50 (NCI-H226 lung) [µM]	GI50 (LXFL 529 NSCLC) [µM]	GI50 (HT29 colon) [µM]	GI50 (M19-MEL melanoma) [µM]	GI50 (MALME-3M melanoma) [µM]	GI50 (HOP-62 NSCLC) [µM]	GI50 (SK-MEL-28 melanoma) [µM]
CS(=O)(=O)OCCn1cnc2nc(NC(=O)c3ccccc3)[nH]c(=O)c21	> 100	> 100 µM	> 100	> 100 µM	> 100 µM	> 100	> 100	> 100 µM	> 100	> 100										
O=C1OC(CC(=O)c2ccc(Cl)cc2Cl)C(Cl)=C1Cl (configuration not stated)	> 58.4	> 89.5 µM	32.1	36 µM	32.9 µM	48.8	39.2	> 100 µM	> 76.9	37.2										
CCOC(=O)C1=C(NNC(=O)Cc2ccccc2)CSC1=Nc1ccccc1	> 100	> 100 µM	> 100	> 100 µM	> 100 µM	> 100	> 100	> 100 µM	> 100	> 100										
CCCCCCCCC(=O)N(C)C1C2CN3CCC(O2)C13 (configuration not stated)	> 100	> 100 µM	> 100	> 100 µM	> 100 µM	> 100	> 100	> 100 µM	> 100	> 100										
NC1=C(Br)C(=O)c2ncccc2C1=O	2.49	3.59 µM	0.8	4.3 µM	0.807 µM	0.298	1.4	1.67 µM	3.02	1.25										
CCCCCCCCCCC(O)[C@H]1CCC(C2CC[C@H]([C@H](O)CCCCCCCCCCC(O)CC3=CC(C)OC3=O)O2)O1 (some centres not stated)	11.7	2.57 µM and 3.36 µM	9.79	2.88 µM and 14.4 µM	8.87 µM and 10 µM	8.92	4.32	4.89 µM and 5.88 µM		7.73	2.24	2.09								
NNC(=O)CCC(=O)Nc1cc(Cl)c(Cl)cc1Cl	> 100	> 100 µM	> 100	> 100 µM	> 100 µM	> 100	> 100	> 100 µM		> 100										
O=c1c2cc(Br)ccc2nc(-c2ccccc2Cl)n1NCC1(O)OCC(O)C(O)C1O (configuration not stated)	> 100	> 100 µM	> 100	> 100 µM	> 100 µM	> 100	> 100	> 100 µM	> 100	> 100										
CC1CC(c2cccc3c2OCO3)=Nc2ccccc2S1 (configuration not stated)	> 100	> 100 µM	> 100	> 100 µM		> 100	> 100		> 100	> 100										
O=C(/C=C/c1ccc(Cl)c(Cl)c1)c1ccc(F)cc1	51.1	92.6 µM	27.7	27.6 µM	20.3 µM	32.5	83.4	> 100 µM	55.3	39.5										
C/C([O-])=C1\Cc2ccccc2C1=O.C/C([O-])=C1\Cc2ccccc2C1=O.CC[O-].CC[O-].[Ti+4]	> 84.5	35.7 µM	35.5	> 100 µM	> 61.3 µM	34.8	> 59.8	50.3 µM	> 100	38.1	17.3	29.6	27.2	7.47	12.3	31.9	16.8	18.8	13	17.7
CC(/C(=N/NC(=O)C(N)=O)c1c(Cl)ccc(Cl)c1O)C1(O)C(=O)Nc2ccccc21 (configuration not stated)	92.3	> 100 µM	> 100	> 100 µM	> 100 µM	> 100	> 100	> 100 µM	> 100	> 100										
C=C(C)C(=O)OC1CC2=CC(CC3(C)OC3C3OC(=O)C(=C)C13)OC2=O (configuration not stated)	29.9	39 µM	5.94	17.3 µM	17.1 µM	19	13.3	41.9 µM	30.9	26.2										
O=c1c2cccc3cccc(c4oc5c6cccc7cccc(c(=O)c5c14)c76)c32		> 31.6 µM	15.8	19.6 µM	17 µM	16.9	17.9	> 100 µM	23.3	17.7										
Fc1cccc2cc3ccc4cccc5ccc(c12)c3c45	> 100	> 100 µM	> 100	> 100 µM	> 100 µM	> 100	> 100	> 100 µM	> 100	> 100										
CC(=O)Nc1ccc(/C=N\N2C(=O)c3ccccc3C2=O)cc1	> 100	> 100 µM	> 100	> 100 µM	> 100 µM	> 100	> 100	> 100 µM	> 100	> 100										
Nc1ncnc2c1ncn2CC(O)C(=O)O (configuration not stated)	> 100	> 100 µM	> 100	> 100 µM	> 100 µM	> 100	> 100	> 100 µM	> 100	> 100										
Nc1ccn(CCO)c(=O)n1	> 100	> 100 µM	> 100	> 100 µM	> 100 µM	> 100	> 100	> 100 µM	> 100	> 100										
[C-]#[O+].[C-]#[O+].[C-]#[O+].[C-]#[O+].[Ir].[Ir].[O-]c1ccc2ccccc2c1C=Nc1ccc(N=Cc2c([O-])ccc3ccccc23)cc1	> 100	> 100 µM	> 100	> 100 µM	> 100 µM	> 100	> 100	> 100 µM	> 100		> 100	> 100	> 100	> 100	> 100	> 100	> 100	> 100	> 100	
O=C(O)CCSCCCN1C(=O)c2ccccc2C1=O	> 100	> 100 µM	> 100	> 100 µM	> 100 µM	> 100	> 100		> 100	> 100										
O=C1C=C[C@@]23C[C@@H](Nc4c(O)c5c6c(c42)=NCCC=6C=N5)SC3=C1	3.27	28.7 µM	3.24	7.39 µM	4.03 µM	3.24	2.52		20.2	20.1		7.74	1.83				1.71			7.48
